In US20070117743A1, “New antitumoral compounds” (priority 2003, published 2007):
Where a SMILES comes first, the peptide text is derived from it. Bridges are numbered along the chain shown (N, C = ends). [ ]: non-standard residue; d: D form. The star is where a group is joined. Hexanoyl(4S-Me) = CC[C@H](C)CCC(=O)*; d(aIle) = CC[C@H](C)[C@@H](N)C(=O)O; d(aThr) = C[C@@H](O)[C@@H](N)C(=O)O; Tic = O=C(O)[C@@H]1Cc2ccccc2CN1; Orn = NCCC[C@H](N)C(=O)O; Dhb = C/C=C(\N)C(=O)O

Tests used:
Assay type in all cases: cell-based, human
[1] = test system: HeLa-APL; test: SRB colorimetric assay of cell growth and viability, HeLa-APL; conditions: 48 hours exposure, SRB; for CC50: read-out: LC50 HELA-APL
[2] = test system: DU-145; test: SRB colorimetric assay of cell growth and viability, DU-145; conditions: 48 hours exposure, SRB
[3] = test system: PANC-1; test: SRB colorimetric assay of cell growth and viability, PANC-1; conditions: 48 hours exposure, SRB; for CC50: read-out: LC50 PANC-1
[4] = test system: SK-BR-3; test: SRB colorimetric assay of cell growth and viability, SK-BR-3; conditions: 48 hours exposure, SRB
Text: The finality of this assay is to interrupt the growth of a “in vitro” tumor cell culture by means a continued exhibition of the cells to the sample to be testing.
This form of the assay employs 96 well cell culture microplates of 9 mm diameter (Faircloth, 1988; Mosmann, 1983). Most of the cell lines are obtained from American Type Culture Collection (ATCC) derived from different human cancer types.
Cells are maintained in RPMI 1640 10% FBS, supplemented with 0.1 g/l penicillin and 0.1 g/l streptomycin sulfate and then incubated at 37° C., 5% CO2 and 98% humidity. For the experiments, cells were harvested from subconfluent cultures using trypsin and resuspended in fresh medium before plating.
Cells are seeded in 96 well microtiter plates, at 5×10^3 cells per well in aliquots of 195 μL medium, and they are allowed to attach to the plate surface by growing in drug free medium for 18 hours. Afterward, samples are added in aliquots of 5 μL in a ranging from 10 to 10^−8 μg/mL, dissolved in DMSO:EtOH:PBS (0.5:0.5:99). After 48 hours exposure, the antitumor effect are measured by the SRB methodology: cells are fixed by adding 50 μL of cold 50% (wt/vol) trichloroacetic acid (TCA) and incubating for 60 minutes at 4° C. Plates are washed with deionized water and dried. One hundred μL of SRB solution (0.4% wt/vol in 1% acetic acid) is added to each microtiter well and incubated for 10 minutes at room temperature. Unbound SRB is removed by washing with 1% acetic acid. Plates are air dried and bound stain is solubilized with Tris buffer. Optical densities are read on a automated spectrophotometric plate reader at a single wavelength of 490 nm.
The values for mean+/− SD of data from triplicate wells are calculated. Some parameters for cellular responses can be calculated: GI=growth inhibition, TGI=total growth inhibition (cytostatic effect) and LC=cell killing (cytotoxic effect).

[5] = test system: IGROV-1; test: SRB colorimetric assay of cell growth and viability, IGROV-1; conditions: 48 hours exposure, SRB
[6] = test system: HT-29; test: SRB colorimetric assay of cell growth and viability, HT-29; conditions: 48 hours exposure, SRB; for GI50: read-out: GI50 HT-29; for CC50: read-out: LC50 HT-29
[7] = test system: K-562; test: SRB colorimetric assay of cell growth and viability, K-562; conditions: 48 hours exposure, SRB; for CC50: read-out: LC50 K-562
[8] = test system: SK-MEL-28; test: SRB colorimetric assay of cell growth and viability, SK-MEL-28; conditions: 48 hours exposure, SRB; for CC50: read-out: LC50 MEL-28
[9] = test system: LoVo; test: SRB colorimetric assay of cell growth and viability, LoVo; conditions: 48 hours exposure, SRB; for CC50: read-out: LC50 LOVO
[10] = test system: HeLa; test: SRB colorimetric assay of cell growth and viability, HeLa; conditions: 48 hours exposure, SRB; for CC50: read-out: LC50 HELA
[11] = test system: LoVo-Dox; test: SRB colorimetric assay of cell growth and viability, LoVo-Dox; conditions: 48 hours exposure, SRB; for CC50: read-out: LC50 LOVO-DOX
Method in brief: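 Here, cells grow drug-free for 18 h, then receive sample dilutions from 10 down to 10^−8 μg/mL for 48 h at 37° C. Protein-bound SRB is solubilized in Tris and quantified at 490 nm.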

[12] = test system: A-549; test: SRB colorimetric assay of cell growth and viability, A-549; conditions: 48 hours exposure, SRB; for GI50: read-out: GI50 A-549; for CC50: read-out: LC50 A-549
[13] = test system: IGROV-ET; test: SRB colorimetric assay of cell growth and viability, IGROV-ET; conditions: 48 hours exposure, SRB; for CC50: read-out: LC50 IGROV-ET

Structure (SMILES) | GI50 [1] | TGI HELA-APL [1] | CC50 [1] | GI50 [2] | LC50 (concentration causing 50% net cell kill) [2] | TGI DU-145 [2] | GI50 [3] | TGI PANC-1 [3] | CC50 [3] | GI50 [4] | LC50 [4] | TGI SK-BR-3 [4] | GI50 [5] | LC50 (concentration causing 50% net cell killing) [5] | TGI IGROV [5] | TGI HT-29 [6] | GI50 [6] | CC50 [6] | GI50 [7] | TGI K-562 [7] | other results
C/C=C1\NC(=O)[C@H](Cc2ccc(O)cc2)NC(=O)[C@@H](C(C)C)NC(=O)[C@@H]([C@@H](C)CC)NC(=O)[C@H](NC(=O)[C@H](NC(=O)[C@H](CCCN)NC(=O)[C@H]2CCCN2C(=O)[C@H](NC(=O)[C@@H](NC(=O)[C@@H](NC(=O)[C@H](NC(=O)CC[C@@H](C)CC)C(C)C)[C@@H](C)O)C(C)C)C(C)C)[C@@H](C)CC)[C@@H](C)OC(=O)[C@H](C(C)C)NC1=O [Compound 78, [Tyr^3, (4S)-MeHex^14]-KF] ({Hexanoyl(4S-Me)}-[dV]TV[dV][dP][Orn][d(aIle)][d(aThr)][d(aIle)][dV]Y[Dhb]V; ester 8-C) | 964 nM | 1.81E−06 Molar | 3420 nM | 1270 nM | 3760 nM | 2.18E−06 Molar | 2560 nM | 6.69E−06 Molar | 6690 nM | 266 nM | 2580 nM | 1.02E−06 Molar | 877 nM | 3330 nM | 1.71E−06 Molar | 1.99E−06 Molar | 1080 nM | 3700 nM | 1650 nM | 3.78E−06 Molar | CC50 [7]: 6690 nM; GI50 [8]: 1120 nM; TGI MEL-28 [8]: 2.01E−06 Molar; CC50 [8]: 3590 nM; GI50 [9]: 390 nM; TGI LOVO [9]: 1.16E−06 Molar; CC50 [9]: 2710 nM; GI50 [10]: 1160 nM; TGI HELA [10]: 1.97E−06 Molar; CC50 [10]: 3360 nM; GI50 [11]: 135 nM; TGI LOVO-DOX [11]: 2.89E−07 Molar; CC50 [11]: 621 nM; TGI A-549 [12]: 2.23E−06 Molar; GI50 [12]: 1270 nM; CC50 [12]: 3920 nM; GI50 [13]: 930 nM; TGI IGROV-ET [13]: 1.79E−06 Molar; CC50 [13]: 3420 nM
C/C=C1\NC(=O)[C@@H]2Cc3ccccc3CN2C(=O)[C@@H](C(C)C)NC(=O)[C@@H]([C@@H](C)CC)NC(=O)[C@H](NC(=O)[C@H](NC(=O)[C@H](CCCN)NC(=O)[C@H]2CCCN2C(=O)[C@H](NC(=O)[C@@H](NC(=O)[C@@H](NC(=O)[C@H](NC(=O)CC[C@@H](C)CC)C(C)C)[C@@H](C)O)C(C)C)C(C)C)[C@@H](C)CC)[C@@H](C)OC(=O)[C@H](C(C)C)NC1=O [Compound 77, [Tic^3, (4S)-MeHex^14]-KF] ({Hexanoyl(4S-Me)}-[dV]TV[dV][dP][Orn][d(aIle)][d(aThr)][d(aIle)][dV][Tic][Dhb]V; ester 8-C) | 1570 nM | 2.53E−06 Molar | 4070 nM | 3630 nM | 6740 nM | 6.71E−06 Molar | 6740 nM | 6.74E−06 Molar | 6740 nM | 873 nM | 5510 nM | 2.19E−06 Molar | 1610 nM | 4260 nM | 2.62E−06 Molar | 2.21E−06 Molar | 1230 nM | 3970 nM | 17 nM | 3.99E−06 Molar | CC50 [7]: 6710 nM; GI50 [8]: 1580 nM; TGI MEL-28 [8]: 3.41E−06 Molar; CC50 [8]: 6710 nM; GI50 [9]: 913 nM; TGI LOVO [9]: 1.76E−06 Molar; CC50 [9]: 3400 nM; GI50 [10]: 1430 nM; TGI HELA [10]: 2.29E−06 Molar; CC50 [10]: 3660 nM; GI50 [11]: 271 nM; TGI LOVO-DOX [11]: 8.32E−07 Molar; CC50 [11]: 2140 nM; TGI A-549 [12]: 2.58E−06 Molar; GI50 [12]: 1520 nM; CC50 [12]: 4400 nM; GI50 [13]: 1420 nM; TGI IGROV-ET [13]: 2.34E−06 Molar; CC50 [13]: 3860 nM
